Publication PMC8855072, “Trypanosoma cruzi Mitochondrial Peroxiredoxin Promotes Infectivity in Macrophages and Attenuates Nifurtimox Toxicity” (Frontiers in Cellular and Infection Microbiology, 2022)

How the values were obtained:
[1] = target: T1, recombinant MPX (rMPX), mitochondrial peroxiredoxin (Trypanosoma cruzi, UniProt O79469); test: inhibition of peroxynitrite decomposition (CBA oxidation, fluorescence); SDS-PAGE of non-reducible adducts; format: biochemical; conditions: covalent; 100 µM CA, 1 h with pre-reduced MPX (5 µM), excess removed; SIN-1 as peroxynitrite source; holdase activity not inhibited
T1 construct: His-tagged, expressed in E. coli BL21, nickel column; pre-reduced with DTT, DTT removed
T1 sequence (O79469 entry or part of it): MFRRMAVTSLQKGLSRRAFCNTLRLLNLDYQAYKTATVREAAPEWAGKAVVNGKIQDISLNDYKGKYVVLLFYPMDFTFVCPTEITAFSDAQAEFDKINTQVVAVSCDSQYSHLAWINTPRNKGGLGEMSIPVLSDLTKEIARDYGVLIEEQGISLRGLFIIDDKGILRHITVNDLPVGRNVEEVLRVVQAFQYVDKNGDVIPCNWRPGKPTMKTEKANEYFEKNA

[2] = target: T1, recombinant MPX (rMPX), mitochondrial peroxiredoxin; test: competition with peroxynitrite-dependent CBA oxidation (fluorescence); format: biochemical; conditions: mere turnover; pre-reduced MPX 5 µM, peroxynitrite flux ~3 µM/min from SIN-1, CBA 50 µM

| SMILES | inhibition of peroxynitrite decomposition (CBA oxidation, fluorescence); SDS-PAG [1] | competition with peroxynitrite-dependent CBA oxidation (fluorescence) [2] |
| --- | --- | --- |
| [O-][n+]1c(CBr)c(CBr)[n+]([O-])c2ccccc21 [conoidin A] | CA reacts and crosslinks recombinant MPX | – |
| O=NOO [peroxynitrite] | – | The decomposition of peroxynitrite by MPX reduces the oxidant generation of coumarin |
